Here are results for 44 compounds from patent US20110124715A1, “Antiviral Oligonucleotides Having a Conserved G4 Core Sequence” (priority 1992, published 2011).

In one series the test system is HSV-1 (KOS). The series is described as follows: HSV-1 infection ELISA assay. The format is cell-based, herpes simplex virus. For orientation: In an ELISA, binding on a coated surface is turned into a signal by an enzyme label.
Series [1] deals with T1, human type II phospholipase A2 (Homo sapiens, UniProt P14555).
T1 sequence (P14555 21-144): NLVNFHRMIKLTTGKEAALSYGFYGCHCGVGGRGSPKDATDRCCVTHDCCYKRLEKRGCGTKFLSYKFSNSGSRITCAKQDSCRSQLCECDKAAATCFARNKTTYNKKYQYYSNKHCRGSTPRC
The series can be described thus: Phospholipase A2 assay, 3H-oleic acid labelled E. coli substrate. The class given is biochemical. To be noted: for % Inhibition (1 μM): Table 5, two separate experiments; for effect on substrate kinetics: increasing amounts of E. coli substrate, ISIS 3481 at 0.2 μM and 2 μM.

The test system of series [2] is human T-lymphoblastoid CEM cell line.
For series [3], the system named is HIV-1IIIB. The series is described as follows: Acute HIV infection assay (XTT, CEM cells). As to conditions: Table 3; for IC50: inhibition of HIV. In general terms: Tetrazolium dyes change colour on reduction, which living cells bring about.
Series [4] concerns HIV-1IIIB.
Series [5] is described as follows: Fraction tetramer by size exclusion chromatography. The class given is physicochemical. As to conditions: Table 16; asterisk = more than one aggregate species. Background: In gel filtration, larger molecules generally elute earlier.
The subject of the next series is HIV-1. As to conditions: Table 16, acute HIV assay.
Setting [6] is: Table 12, inosine-substituted oligonucleotides against HSV.
The mark [7] stands for this setting: Table 1, 50% inhibition of HSV replication relative to control infected cells.

“And” between values parts separate entries of the source, which are not always exact repeats. Identical values can stand only once. Like-named read-outs stand apart in the source and are kept apart here. Marks after values point to notes of the source that are not given here. Strand notation (5' to 3'): a small letter for the sugar, then the base; units joined by * are phosphorothioate-linked, units joined directly phosphodiester-linked; [ ] holds rarer units or linkages, { } end groups; capitals alone tell only the bases. [I] = hypoxanthine (inosine); d = 2'-deoxy (DNA)

In general, EC50 refers to the concentration that produces a half-maximal response. Low readings indicate an effect from little substance, high ones a need for much substance. On to “4925 (GTTGGAGACCGGNGTTGGNG; DNA, [I] at 13, 19, backbone not given here) [compound 4925]”, for which the EC50 in the series on HSV-1 (KOS) (setting [6]) worked out at 1600 nM.

On to “4947 (dA*dG*dG*dT*dG*dG*dG*dT*dA*dT*dA*dG) [compound 4947]”, for which the “% Inhibition (1 μM)” value in series [1] (1 μM) was 22.7%.

For the compound “4955 (dG*dG*dG*dA*dG*dG*dG*dT*dA*dT*dA*dG) [compound 4955]”, the “% Inhibition (1 μM)” value in series [1] (1 μM) is 97.5%.

“4956 (dG*dG*dG*dC*dG*dG*dG*dT*dA*dT*dA*dG) [compound 4956]”: the “% Inhibition (1 μM)” value in series [1] (1 μM) came out at 92.0%.

As to “4957 (dG*dG*dG*dT*dG*dG*dA*dT*dA*dT*dA*dG) [compound 4957]”, the “% Inhibition (1 μM)” value in series [1] (1 μM) is 81.9%.

In the case of “4962 (dG*dG*dG*dT*dG*dG*dG*dT*dA*dT) [compound 4962]”, the “% Inhibition (1 μM)” value in series [1] (1 μM) is recorded as 36.3%.

On to “5295 (GTTGGAGACCGGGNTTGGGG; DNA, [I] at 14, backbone not given here) [compound 5295]”, for which the EC50 in the series with HSV-1 (KOS) (setting [6]) was over 3000 nM.

“5296 (GTTGGAGACCGGGGTTGGNG; DNA, [I] at 19, backbone not given here) [compound 5296]” registered an EC50 in the series with HSV-1 (KOS) (setting [6]) of 800 nM.

Compound “5297 (CACGAAAGGCATGACCGNGGC; DNA, [I] at 18, backbone not given here) [compound 5297]” displayed an EC50 in the series on HSV-1 (KOS) (setting [6]) of over 3000 nM.

In turn, “5309 (GTTGGAGACCGNGTTGGGG; inosine substitution, further chemistry not given here) [compound 5309]” had an EC50 in the series with HSV-1 (KOS) (setting [6]) of over 3000 nM.

In the series with HSV-1 (KOS) (setting [6]), “5310 (GTTGGAGACCGGGGTTGGGN; DNA, [I] at 20, backbone not given here) [compound 5310]” yielded a 50% effective concentration (EC50) of 400 nM.

The compound “5366 (TTGGGGTTGGGGTTGGGGTTGGGGG; phosphorothioate, further chemistry not given here) [compound 5366]” yielded a TC50 in series [2] of 22000 nM. The “TI (TC50/IC50)” value in the series with HIV-1IIIB [3] was 220.

In the case of “5544 (GGGTGGGTATAG; phosphorothioate, further chemistry not given here) [compound 5544]”, in the series with HSV-1 (KOS) (setting [7]), the EC50 was over 3000 nM. The “% Inhibition (1 μM)” value in series [1] (1 μM) is listed as 50%.

The IC50 is the midpoint of a concentration-inhibition curve. A low value points to greater potency. On to “5590 (GGGGTTGGGG; phosphodiester, further chemistry not given here) [compound 5590]”, for which the EC50 with HSV-1 (KOS) (setting [7]) is over 3000 nM. In series [2], this compound gave a TC50 of 20000 nM. In the series with HIV-1IIIB [3], this compound yielded an IC50 of over 25000 nM.

For “5652 (TTGGGGTTGGGGTTGGGGTT; phosphorothioate, further chemistry not given here) [compound 5652]”, in the series with HIV-1IIIB [3], the “TI (TC50/IC50)” value is reported as 227.

Regarding “5653 (TTGGGGTTGGGGTTGGGG; phosphorothioate, further chemistry not given here) [compound 5653]”, in series [2], the TC50 was 27000 nM. This compound came in with a half-maximal inhibitory concentration (IC50) in the series on HIV-1IIIB [3] of 190 nM.

In the case of “5666 (DNA TTGGGGTTGGGGTTGGGG; phosphodiester, further chemistry not given here) [compound 5666]”, the “TI (TC50/IC50)” value with HIV-1IIIB [4] is given as 100.

Consider “5667 (DNA TTGGGGTTGGGGTT; unmodified DNA) [compound 5667]”, for which the TC50 in series [2] is 5600 nM. Also, the half-inhibitory concentration (IC50) in the series with HIV-1IIIB [3] was over 22000 nM.

Turning to “5668 (DNA TTGGGGTTGGGG; unmodified DNA) [compound 5668]”, the TC50 in series [2] is 5200 nM. For the same compound, the half-inhibitory concentration (IC50) in the series on HIV-1IIIB [3] was over 21000 nM.

For the compound “5670 (DNA GGGGTTGGGGTTGGGGTTGGGG; unmodified DNA) [compound 5670]”, in the series on HSV-1 (KOS) (setting [7]), the concentration for a half-maximal effect (EC50) was over 3000 nM. In series [2], this compound came in with a TC50 of 15000 nM.

In turn, “5674 (DNA dT*dT*dG*dG*dG*dG*dT*dT*dG*dG*dG*dG) [compound 5674]” returned a TC50 in series [2] of over 200000 nM.

Turning to “5676 (DNA dG*dG*dG*dG*dT*dT*dG*dG*dG*dG*dT*dT*dG*dG*dG*dG) [compound 5676]”, the “TI (TC50/IC50)” value in the series with HIV-1IIIB [4] is 114.

Regarding “5677 (DNA dG*dG*dG*dG*dT*dT*dG*dG*dG*dG*dT*dT*dG*dG*dG*dG*dT*dT*dG*dG*dG*dG) [compound 5677]”, the “TI (TC50/IC50)” value in the series on HIV-1IIIB [4] is 146.

As to `Nc1nc2c(ncn2COCCO)c(=O)[nH]1` [ACV, 9-(2-hydroxyethoxymethyl) guanine, reference compound], the “activity against HSV-1” value in the series with HSV-1 (KOS) (FIG. 8 and FIG. 9) was “more active than a control oligonucleotide, ISIS 3383”.

In the case of “AGGTCGAGGAGTGGTCTGAGC (dA*dG*dG*dT*dC*dG*dA*dG*dG*dA*dG*dT*dG*dG*dT*dC*dT*dG*dA*dG*dC) [ISIS 3631]”, the “I.C.50 relative to ISIS 3196” value in series [1] (b86, fold higher) is given as “approximately 10 fold”.

Turning to “GCCGAGGTCCATGTCGTACGC (GCCGAGGTCCATGTCGTACGC; chemistry not given here) [ISIS 1082, negative control oligonucleotide complementary to HSV UL13 translation initiation codon; has no runs of G, reference compound]”, the concentration for a half-maximal effect (EC50) in the series with HSV-1 (KOS) (b150, duplicate experiments) is 2500 nM and 1800 nM.

For the compound GG GG [ISIS 4803], the “% tetramer” value in series [5] is 29* %.

Broadly, the inhibition is the share of the control response that was lost under treatment. Read a high inhibition as a strong effect. Regarding “GGG T GGG T ATA G AAG G GCT CC (GGGTGGGTATAGAAGGGCTCC; chemistry not given here) [ISIS 3196]”, the “inhibition of enzyme activity” value in series [1] (1 μM) is “completely inhibited”. Moreover, the inhibition in series [1] (boiling water for 15 minutes prior to addition to the assay) is listed as 21%; in series [1] (native, not boiled), 94%. Further, the “effect on substrate kinetics” value in series [1] is reported as “apparent noncompetitive inhibitor”.

For GGGGGGTG [ISIS 5684], the ED50 entry in the series with HSV-1 (KOS) (b190) is reported as “approximately 0.6 μM”.

As for “GTAGGGAGGGAGGGTATGAGA (dG*dT*dA*dG*dG*dG*dA*dG*dG*dG*dA*dG*dG*dG*dT*dA*dT*dG*dA*dG*dA) [ISIS 3470]”, in series [1] (1 μM), the “inhibition of enzyme activity” value is “completely inhibited”.

As for “GTGGAGGAGAGCAGTAGAAGG (dG*dT*dG*dG*dA*dG*dG*dA*dG*dA*dG*dC*dA*dG*dT*dA*dG*dA*dA*dG*dG) [ISIS 3477]”, in series [1] (1 μM), the “inhibition of enzyme activity” value came out at 54.7%.

For GsGsGsGsT, the “% tetramer” value in series [5] is 61* %. Further, the IC50 in the series on HIV-1 turned out to be 1400 nM.

As for GsGsGsGsTsT, in series [5], the “% tetramer” value is given as 94* %. Besides, the IC50 in the series with HIV-1 came out at 500 nM.

For “ISIS 1573: phosphorothioate deoxyoligonucleotide, SEQ ID NO: 120 (DNA dG*dA*dG*dG*dC*dT*dG*dA*dG*dG*dT*dG*dG*dG*dA*dG*dG*dA)”, in series [1] (concentrations as high as 10 μM), the “inhibition of phospholipase A2” value was “did not significantly inhibit”.

For TGG GG [ISIS 5544], the “inhibition of enzyme activity” value is recorded as 50% in series [1] (1 μM) and “complete inhibition” in series [1] (3 μM). Besides, the “% tetramer” value in series [5] is recorded as 57* %. Further, the IC50 result in the series on HIV-1 is “inactive”.

Take TT GGGG TT [ISIS 5671]: the IC50 entry with HIV-1 (listed as ToToGoGoGoGoToT) is “inactive”.

Consider TT GGGG [ISIS 5739], for which the “% tetramer” value in series [5] is recorded as 40* %. For the same compound, the IC50 with HIV-1 came to 13000 nM.

Take “TTTTTGATTTGCTAATTGCTT (dT*dT*dT*dT*dT*dG*dA*dT*dT*dT*dG*dC*dT*dA*dA*dT*dT*dG*dC*dT*dT) [ISIS 3481]”: the “effect on substrate kinetics” value in series [1] is “did not modify the substrate kinetics”.

Consider ToToGsGsGsGoToT, for which the “% tetramer” value in series [5] was found to be 72%. Moreover, in the series on HIV-1, the 50% inhibitory concentration (IC50) result is “inactive”.

As for ToTsGoGsGoGsToT, the “% tetramer” value in series [5] was found to be 9%. The concentration for half-maximal inhibition (IC50) result in the series on HIV-1 is “inactive”.

In the case of TsToGsGoGsGoTsT, the “% tetramer” value in series [5] stood at 83%. Moreover, the IC50 in the series with HIV-1 is 5300 nM.

As to TsTsGoGoGoGsTsT, the “% tetramer” value in series [5] was found to be 80%. In the series on HIV-1, this compound returned a concentration for half-maximal inhibition (IC50) of 5000 nM.

α-ToToGoGoGoGoToT: the “% tetramer” value in series [5] was determined as 97%. In addition, the half-inhibitory concentration (IC50) result in the series with HIV-1 is “inactive”.

On to α-TsTsGsGsGsGsTsT, for which the “% tetramer” value in series [5] worked out at 98%. In the series with HIV-1, 500 nM corresponded to half-maximal inhibition (IC50).
